System: SUM149PT spheroids with HUVEC/MSC, viability
Test: Anticancer human tumor SUM149PT cell line growth inhibition [GQUAD];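 note: spheroids exposed to drugs for seven days before readout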;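 for viability, T/C: percent viability relative to DMSO vehicle control taken as 100%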
Details: for IC50: curve of first compound; for viability, T/C: stronger effect = lower value; active = viability on the fitted dose curve at most 10% of control; inactive = the rest
Source text: DNA G-quadruplex Stabilizer Agents in Combinations in Complex Spheroids
A high-throughput screen of multi-cell type tumor spheroids was designed to identify active combinations of DNA G-quadruplex stabilizer agents and targeted small molecules. Complex spheroids include a stromal component modeled by human endothelial cells (HUVEC) and fibroblasts modeled by human mesenchymal stem cells (MSCs). The concentration ranges selected for each drug and investigational agent were based upon clinically achievable concentrations if the clinical Cmax of the agent was known.
Compounds. The drugs and investigational agents: pidnarulex (CX-5461; NSC782164), APTO-253 (NSC789042), BRACO-19 (NSC847499), peposertib (NSC802822), ceralasertib (NSC780249), elimusertib (NSC800525), camonsertib (NSC841442), AZD-1390 (NSC803789), olaparib (NSC753686), talazoparib (NSC767125), ART-558 (NSC835418), sotorasib (NSC818433), MRTX-1133 (NSC836407), SN-38 (NSC673596), topotecan (NSC609699), etoposide (NSC141540), doxorubicin (NSC123127), gemcitabine (NSC613327), 5-fluorouracil (NSC19893), paclitaxel (NSC125973), vemurafenib (NSC761431), panobinostat (NSC761190), R-306465 (JNJ-16241199; NSC773264), adavosertib (NSC754352), TP-3654 (NSC805149), carboplatin (NSC241240), KSQ-4279 (NSC840948), and staurosporine (NSC755774) were obtained from the National Cancer Institute (NCI) Developmental Therapeutics Program Chemical Repository (34). The FDA-approved anticancer drug set is available from the NCI Developmental Therapeutics Program. […] The stock solutions were prepared in dimethyl sulfoxide (DMSO, Sigma-Aldrich, St. Louis, MO, cat. D2650) at 800-fold the tested concentration and stored at -70 degrees C prior to their use. All drugs and investigational agents were tested over a range starting from a high concentration at or near the clinical Cmax and decreasing in half-log increments. If the clinical Cmax for an agent had not been determined, the highest concentration tested was 10 microM.
2.3 Cell Culture. All cells were maintained in an incubator at 37 degrees C and 5% CO2 with 95% humidity. The PDC lines were cultured according to standard operating procedures established by the NCI PDMR. All PDCs were thawed and cultured in Matrigel-coated flasks prepared with a working solution of 1X Ham's F-12 nutrient mix, without supplementation (Invitrogen, cat. 11765054), 100 U/mL penicillin-streptomycin (Invitrogen, cat. 15140122), and 2.5% Matrigel (Corning Inc., cat. 354248) for the first three passages. The 857933-349-R-J2-PDC line was cultured in 6C/Colon 1B media, which includes advanced DMEM/F-12 (Thermo Fisher Scientific, cat. 12634028), 10 mM HEPES (Thermo Fisher Scientific, cat. 15630080), 1X GlutaMAX supplement (Thermo Fisher Scientific, cat. 35050061), 0.1 mg/mL primocin (InvivoGen, cat. ant-pm-2), 10% defined fetal bovine serum, heat inactivated (HyClone Laboratories Inc., cat. SH30070.03HI), 50% L-WRN conditioned media (ATCC, cat. CRL-3276), 1.25 mM N-Acetyl-L-cysteine (Sigma-Aldrich, cat. A9165), 10 mM nicotinamide (Sigma-Aldrich, cat. N0636), 1X B-27 supplement (Thermo Fisher Scientific, cat. 17504044), 1X N-2 supplement (Thermo Fisher Scientific, cat. 17502048), 10 microM Y-27632 dihydrochloride (Tocris Bioscience, cat. 1254), and 50 ng/mL human EGF recombinant protein (Thermo Fisher Scientific, cat. PHG0311). The 485176-168-R4-J1-PDC line was cultured in Panc media, which includes all 6C/Colon 1B media components plus 100 ng/mL human FGF-10 (Thermo Fisher Scientific, cat. 100-26), 500 nM SB-431542 (Selleckchem, cat. S1067), and gastrin (Tocris, cat. 3006).
[…]

[1] = second compound 0.0316 µM, first compound 0.0316 µM
[2] = second compound 0.0316 µM, first compound 0.1 µM
[3] = second compound 0.0316 µM, first compound 0.316 µM
[4] = second compound 0.0316 µM, first compound 1 µM
[5] = second compound 0.0316 µM, first compound 3.16 µM
[6] = second compound 0.0316 µM, first compound 10 µM
[7] = second compound 0.1 µM, first compound 0.0316 µM
[8] = second compound 0.1 µM, first compound 0.1 µM
[9] = second compound 0.1 µM, first compound 0.316 µM
[10] = second compound 0.1 µM, first compound 1 µM
[11] = second compound 0.1 µM, first compound 3.16 µM
[12] = second compound 0.1 µM, first compound 10 µM
[13] = second compound 0.316 µM, first compound 0.0316 µM
[14] = second compound 0.316 µM, first compound 0.1 µM
[15] = second compound 0.316 µM, first compound 0.316 µM
[16] = second compound 0.316 µM, first compound 1 µM
[17] = second compound 0.316 µM, first compound 3.16 µM
[18] = second compound 0.316 µM, first compound 10 µM
[19] = second compound 1 µM, first compound 0.0316 µM
[20] = second compound 1 µM, first compound 0.1 µM
[21] = second compound 1 µM, first compound 0.316 µM
[22] = second compound 1 µM, first compound 1 µM
[23] = second compound 1 µM, first compound 3.16 µM
[24] = second compound 1 µM, first compound 10 µM
[25] = second compound 3.16 µM, first compound 0.0316 µM
[26] = second compound 3.16 µM, first compound 0.1 µM
[27] = second compound 3.16 µM, first compound 0.316 µM
[28] = second compound 3.16 µM, first compound 1 µM
[29] = second compound 3.16 µM, first compound 3.16 µM
[30] = second compound 3.16 µM, first compound 10 µM
[31] = second compound 10 µM, first compound 0.0316 µM
[32] = second compound 10 µM, first compound 0.1 µM
[33] = second compound 10 µM, first compound 0.316 µM
[34] = second compound 10 µM, first compound 1 µM
[35] = second compound 10 µM, first compound 3.16 µM
[36] = second compound 10 µM, first compound 10 µM

CC(C)n1c(=O)n(C)c2cnc3cc(F)c(-c4ccc(OCCCN5CCCCC5)nc4)cc3c21 + Cc1[nH]c2ccc(F)cc2c1-c1nc2c3cccnc3c3ncccc3c2[nH]1
inactive: viability, T/C [1] 86.3% | viability, T/C [2] 80.9% | viability, T/C [3] 104% | viability, T/C [4] 96.4% | viability, T/C [5] 98.1% | viability, T/C [6] 67.7% | viability, T/C [7] 97.8% | viability, T/C [8] 90.8% | viability, T/C [9] 88% | viability, T/C [10] 101% | viability, T/C [11] 98.5% | viability, T/C [12] 73% | viability, T/C [13] 99.3% | viability, T/C [14] 91.3% | viability, T/C [15] 95% | viability, T/C [16] 103% | viability, T/C [17] 93.8% | viability, T/C [18] 73.2% | viability, T/C [19] 94.8% | viability, T/C [20] 96.4% | viability, T/C [21] 95.7% | viability, T/C [22] 97.5% | viability, T/C [23] 105% | viability, T/C [24] 69.4% | viability, T/C [25] 89.9% | viability, T/C [26] 91.5% | viability, T/C [27] 97.5% | viability, T/C [28] 92.5% | viability, T/C [29] 99.8% | viability, T/C [30] 64.3% | viability, T/C [31] 94.5% | viability, T/C [32] 77.6% | viability, T/C [33] 89% | viability, T/C [34] 92.5% | viability, T/C [35] 94.8% | viability, T/C [36] 62.5%
> 10 µM: IC50 (second compound 0.0316 µM) | IC50 (second compound 0.1 µM) | IC50 (second compound 0.316 µM) | IC50 (second compound 1 µM) | IC50 (second compound 3.16 µM) | IC50 (second compound 10 µM)

CC1COCCN1c1cc(C2(O)CC3CCC(C2)O3)c2cnn(-c3ccn[nH]3)c2n1 (stereo unspecified) + Cc1[nH]c2ccc(F)cc2c1-c1nc2c3cccnc3c3ncccc3c2[nH]1
0.0619 µM: IC50 (second compound 10 µM)
0.076 µM: IC50 (second compound 1 µM)
0.0841 µM: IC50 (second compound 0.316 µM)
0.0778 µM: IC50 (second compound 0.1 µM)
0.0738 µM: IC50 (second compound 0.0316 µM)
0.0711 µM: IC50 (second compound 3.16 µM)
inactive: viability, T/C [1] 74.5% | viability, T/C [2] 40.2% | viability, T/C [3] 27.5% | viability, T/C [4] 23.9% | viability, T/C [5] 22% | viability, T/C [6] 15.9% | viability, T/C [7] 78.9% | viability, T/C [8] 40.5% | viability, T/C [9] 28.3% | viability, T/C [10] 22.6% | viability, T/C [11] 23.9% | viability, T/C [12] 15.4% | viability, T/C [13] 80.9% | viability, T/C [14] 45.6% | viability, T/C [15] 24.6% | viability, T/C [16] 25.5% | viability, T/C [17] 25.4% | viability, T/C [18] 14.7% | viability, T/C [19] 81.8% | viability, T/C [20] 40.2% | viability, T/C [21] 24.8% | viability, T/C [22] 23.5% | viability, T/C [23] 23.6% | viability, T/C [24] 17.6% | viability, T/C [25] 78.4% | viability, T/C [26] 38.2% | viability, T/C [27] 22.3% | viability, T/C [28] 25.8% | viability, T/C [29] 23.5% | viability, T/C [30] 15.3% | viability, T/C [31] 74.9% | viability, T/C [32] 32.2% | viability, T/C [33] 22.9% | viability, T/C [34] 23.1% | viability, T/C [35] 24.7% | viability, T/C [36] 16.2%

O=C(c1cc(Cc2n[nH]c(=O)c3ccccc23)ccc1F)N1CCN(C(=O)C2CC2)CC1 + Cc1[nH]c2ccc(F)cc2c1-c1nc2c3cccnc3c3ncccc3c2[nH]1
inactive: viability, T/C [1] 105% | viability, T/C [2] 97.4% | viability, T/C [3] 98.5% | viability, T/C [4] 103% | viability, T/C [5] 93.2% | viability, T/C [6] 80.3% | viability, T/C [7] 102% | viability, T/C [8] 96.8% | viability, T/C [9] 96.5% | viability, T/C [10] 99.8% | viability, T/C [11] 108% | viability, T/C [12] 76.9% | viability, T/C [13] 93.8% | viability, T/C [14] 95.1% | viability, T/C [15] 103% | viability, T/C [16] 111% | viability, T/C [17] 96.6% | viability, T/C [18] 74.8% | viability, T/C [19] 99.9% | viability, T/C [20] 97.6% | viability, T/C [21] 108% | viability, T/C [22] 100% | viability, T/C [23] 100% | viability, T/C [24] 69.2% | viability, T/C [25] 89.9% | viability, T/C [26] 96.4% | viability, T/C [27] 98.4% | viability, T/C [28] 99.6% | viability, T/C [29] 95.8% | viability, T/C [30] 75.2% | viability, T/C [31] 86.8% | viability, T/C [32] 86.6% | viability, T/C [33] 82.4% | viability, T/C [34] 101% | viability, T/C [35] 102% | viability, T/C [36] 73.5%
> 10 µM: IC50 (second compound 0.0316 µM) | IC50 (second compound 0.1 µM) | IC50 (second compound 0.316 µM) | IC50 (second compound 1 µM) | IC50 (second compound 3.16 µM) | IC50 (second compound 10 µM)
